Values quoted from earlier work in patent US20090069345A1, “Pharmaceutically Stable Compound Consisting of Timolol, Dorzolamide and Brimonidine” (priority 2007, published 2009).

Legend:
[1] = intravenous injection, first 3 hours
eye of a rabbit = conditions: concentrations above those normally used in formulations

Row | Compound | dose excreted in urine [1] | toxicity to the eye (eye of a rabbit)
1 | OC[C@@H](O)[C@@H](O)[C@H](O)[C@H](O)CO [Mannitol] | about 80% | –
2 | Benzalkonium chloride | – | damaging
